From US20190060300A1, “Self-Emulsifying Compositions of CB2 Receptor Modulators” (priority 2016, published 2019)

Legend:
[1] = Dissolution of MH in oral formulations V-01, V-02, V-03; assay type: physicochemical
Procedure: The solution of 4-O-methylhonokiol (MH) was prepared in oral formulation according to Table 1 below.

[2] = Dissolution of MH in the SEDDS vehicle of Example 1; assay type: physicochemical
Procedure: Preparation of MH in SEDDS vehicle. • 1. The SEDDS vehicle of the oral composition of Example 1 was warmed up separately to 42° C. for 13 min. In order to prepare about 5% (g/vol) MH solution, the vehicle (380 mg) was added to MH (22.8 mg) directly and vortexed for 60 sec to obtain the oral composition. • 2. The SEDDS vehicle of the oral composition of Example 1 was warmed up separately to 52° C. for 15 min. In order to prepare about 5% (g/vol) MH solution, the vehicle (380.18 mg) was added to MH (21.2 mg) directly and vortexed for 100 sec to obtain the oral composition. Then the solution was warmed up to 50° C. for 10 min. Then the solution was warmed up to 57° C. for 13 min and vortexed for 180 sec. • 3. The SEDDS vehicle of the oral composition of Example 1 was warmed up separately to 55° C. for 15 min. In order to prepare about 1% (g/vol) MH solution, the vehicle (396 mg) was added to MH (4 mg) directly and vortexed for 60 sec to obtain the oral composition. Then the solution was warmed up to 55° C. for 10 min and vortexed for 60 sec.

[3] = Sköld et al. 2006; cited from earlier work
CB2 receptor = CB2 receptor (Homo sapiens, UniProt P34972); conditions: Chicca A. et al; cited from earlier work
[4] = tested on: mouse model of schizophrenia (PCP); experiment: Open field test after oral BCP in SEDDS, PCP mouse model of schizophrenia; assay type: in vivo; conditions: 5 mg/kg BCP in SEDDS oral formulation, gavage, adolescent mice
Procedure: (§1) The mouse model of schizophrenia was established.
(§2) Sterile double-distilled water (DDW) was warmed for […] in a pre-warmed thermobath (35-38° C.). The SEDDS vehicle of the oral composition of Example 1 was warmed up separately to 35-38° C. for 10 min. In order to prepare BCP (5 mg/ml) for a final dose of 10 mg/kg, BCP (5 mg) was added directly into the vehicle (1 ml) and vortexed for 1 min to obtain the oral composition. Then the warmed sterile DDW (4 ml) at 35-38° C. was added at a ratio of 1:5 oral composition: DDW dilution and the diluted composition was vortexed for 1 min. In order to prepare BCP for a final dose of 5 mg/kg, 500 μl of BCP at 5 mg/ml were diluted with 500 μl SEDDS vehicle (1:2 dilution). Then the warmed sterile DDW (4 ml) at 35-38° C. was added at a ratio of 1:5 oral composition. DDW dilution and the diluted composition was vortexed for 1 min.
(§3) BCP (5 mg/kg or 10 mg/kg in diluted self-emulsifying vehicle (Example 1)) was administered to adolescent mice (10 μl/g) by gavage twice a week (on Sunday and Wednesday) for 3 weeks (PND 43-62), a total of 6 injections. […]
Each mouse was placed into the center of a clear open Plexiglas Chamber (40 cm*32 cm*30 cm) which its floor was divided to squares of 4 cm×5 cm. […] Ambulation behavior was manually counted for 8 min and data were collected in 2 min intervals.

[5] = Body weight of mice treated orally with BCP in SEDDS; assay type: in vivo; conditions: 5 mg/kg BCP in SEDDS oral composition, gavage, adolescent mice
Procedure: (§4) BCP (5 mg/kg or 10 mg/kg in diluted self-emulsifying vehicle (Example 1)) was administered to adolescent mice (10 μl/g) by gavage twice a week (on Sunday and Wednesday) for 3 weeks (PND 43-62), a total of 6 injections. Control group and PCP-induced group received by gavage the oral formulation solution without the drug.

[6] = tested on: mouse model of schizophrenia (PCP); experiment: Forced-swimming test after oral BCP in canola oil, PCP mouse model of schizophrenia; assay type: in vivo, mice
Procedure: as §1
BCP was diluted in canola oil.
BCP (10 mg/kg diluted in canola oil) was administered to adolescent mice (PND 4362) by gavage twice a week (on Sunday and Wednesday) for 3 weeks, a total of 6 gavages. Control group and PCP-induced group received by gavage the oil vehicle.
Training was conducted for 6 min a day before the test. Each mouse was placed into a transparent glass cylinder filled with fresh water at 25° C. On the test day, the total dilation/frequency of immobility and climbing was counted every 2 minutes for 6 minutes. An increased immobility is an index of learning and habituation, therefore a positive behavioral adaptation with a stressful condition.

[7] = tested on: mouse model of schizophrenia (PCP); experiment: Social interaction test in a novel environment after oral BCP in SEDDS, PCP mouse model; assay type: in vivo; conditions: 5 mg/kg BCP in SEDDS oral composition, gavage, adolescent mice
Procedure: as §1, §2, §3
Each mouse was placed in a novel cage together with a nonaggressive intruder mouse, of the same species, same sex and a similar age. The interaction between the two mice was recorded for 10 minutes with EthoVision software (Noldus). […]

[8] = tested on: mouse model of schizophrenia (PCP); experiment: Forced-swimming test after oral BCP in SEDDS, PCP mouse model of schizophrenia; assay type: in vivo; conditions: gavage twice a week for 3 weeks, adolescent mice
Procedure: as §1, §2, §4
Training was conducted for 6 min a day before the test. […] On the test day, the total duration/frequency of immobility and climbing was counted every 2 minutes for 6 minutes. […]

[9] = air exposed, after 5 weeks; cited from earlier work
[10] = according to its MSDS; cited from earlier work
[11] = oral and topical administration, Chaves 2008; cited from earlier work

Chain of CB2 receptor (P34972 whole entry): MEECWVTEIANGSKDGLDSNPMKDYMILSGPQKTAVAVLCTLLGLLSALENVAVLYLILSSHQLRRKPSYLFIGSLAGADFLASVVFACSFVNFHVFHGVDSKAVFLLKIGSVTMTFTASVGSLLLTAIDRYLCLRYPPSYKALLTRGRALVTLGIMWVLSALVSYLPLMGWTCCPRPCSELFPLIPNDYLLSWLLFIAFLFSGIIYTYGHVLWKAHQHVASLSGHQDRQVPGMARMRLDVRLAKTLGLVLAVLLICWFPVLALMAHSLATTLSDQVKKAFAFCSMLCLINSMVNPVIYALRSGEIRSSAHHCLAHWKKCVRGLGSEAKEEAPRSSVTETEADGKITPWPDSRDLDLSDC

C=CCc1ccc(O)c(-c2ccc(OC)c(CC=C)c2)c1 [MH, 4-O-methylhonokiol]
dissolution of MH in oral formulation ([1]; in V-01): dissolved | dissolution of MH in oral formulation ([1]; in V-02): dissolved | dissolution of MH in oral formulation ([1]; in V-03): dissolved | dissolution of MH in SEDDS vehicle ([2]; about 1% (g/vol) MH, solution warmed up to 55° C. for 10 min, vortexed 60 sec): dissolved | dissolution of MH in SEDDS vehicle ([2]; about 1% (g/vol) MH, vehicle warmed to 55° C., vortexed 60 sec): did not dissolve | dissolution of MH in SEDDS vehicle ([2]; about 5% (g/vol) MH, solution warmed up to 50° C. for 10 min): did not dissolve | dissolution of MH in SEDDS vehicle ([2]; about 5% (g/vol) MH, solution warmed up to 57° C. for 13 min, vortexed 180 sec): dissolved | dissolution of MH in SEDDS vehicle ([2]; about 5% (g/vol) MH, vehicle warmed to 42° C., vortexed 60 sec): did not dissolve | dissolution of MH in SEDDS vehicle ([2]; about 5% (g/vol) MH, vehicle warmed to 52° C., vortexed 100 sec): did not dissolve

C=C1CC[C@H]2O[C@]2(C)CC[C@@H]2[C@@H]1CC2(C)C [BCP oxide, Caryophyllene oxide]
allergenicity [3]: allergen | CB2 receptor binding (CB2 receptor): inactivity

trans-(1R,9S)-8-methylene4,11,11 trimethylbicyclo[7.2.0)]undec-4-ene [BCP]
effect of PCP on activity in the open field test [4]: reversed the effect of PCP | body weight [5]: did not affect their body weight | effect of 5 mg/kg PCP on the frequency of immobility in the forced swim test ([6]; 10 mg/kg BCP in oil composition (canola oil), gavage twice a week for 3 weeks): did not reverse the effect | reversing the frequency of climbing in the forced-swim test ([6]; BCP in oil, gavage): ineffective | effect of PCP in the social interaction test [7]: reversed the effect of PCP | effect of PCP in the forced-swim test ([8]; 5 mg/kg BCP in SEDDS oral formulation): reversed the effect of PCP | effect of PCP in the forced-swim test ([8]; 10 mg/kg BCP in SEDDS oral formulation): reversed the effect of PCP | original compound consumed by oxidation [9]: ~50%

C/C1=C\CC/C(C)=C/CC(C)(C)/C=C/C1 [alpha-humulene]
irritancy [10]: skin, eyes and respiratory irritant | absorption [11]: rapid onset and relatively good absorption | CB2 receptor binding (CB2 receptor): inactivity
